“And” between values parts separate entries of the source, which are not always exact repeats. Identical values can stand only once. Inconclusive results and toxic doses are left out.
Tested on: L1210 leukemia ip in BDF1 mice, survival T/C
Test: NCI In Vivo Anticancer Drug Screen. Data for tumor model L1210 Leukemia (intraperitoneal) in B6D2F1 (BDF1) mice
Conditions: endpoint: mean survival time, higher = longer survival
How it was run: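 Mice bearing the transplanted tumor received compound or vehicle. Survival of the treated group was divided by that of the vehicle-treated control group to give the ratio.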

[1] = dose: 100.0 mg/kg/injection, schedule: Q01DX009 (ip), vehicle: saline with Tween-80
[2] = dose: 200.0 mg/kg/injection, schedule: Q01DX009 (ip), vehicle: saline with Tween-80
[3] = dose: 100.0 mg/kg/injection, schedule: Q04DX002 (ip), vehicle: saline with Tween-80
[4] = dose: 200.0 mg/kg/injection, schedule: Q04DX002 (ip), vehicle: saline with Tween-80
[5] = dose: 50.0 mg/kg/injection, schedule: Q01DX009 (ip), vehicle: saline
[6] = dose: 100.0 mg/kg/injection, schedule: Q01DX009 (ip), vehicle: saline
[7] = dose: 200.0 mg/kg/injection, schedule: Q01DX009 (ip), vehicle: saline
[8] = dose: 100.0 mg/kg/injection, schedule: Q01DX009 (ip), vehicle: Klucel (hydroxypropylcellulose) (HPC)
[9] = dose: 200.0 mg/kg/injection, schedule: Q01DX009 (ip), vehicle: Klucel (hydroxypropylcellulose) (HPC)
[10] = dose: 100.0 mg/kg/injection, schedule: Q04DX003 (ip), vehicle: Klucel (hydroxypropylcellulose) (HPC)
[11] = dose: 200.0 mg/kg/injection, schedule: Q04DX003 (ip), vehicle: Klucel (hydroxypropylcellulose) (HPC)

CC(C)N=C(NC(C)C)c1ccc(NC(=O)Nc2ccc(NC(=O)Nc3ccc(C(=NC(C)C)NC(C)C)cc3)cc2)cc1
T/C (dose: 1.88 mg/kg/injection, schedule: Q01DX Z (ip), vehicle: carboxymethylcellulose (CMC)): 101 % of control
T/C (dose: 3.75 mg/kg/injection, schedule: Q01DX Z (ip), vehicle: carboxymethylcellulose (CMC)): 102 % of control
T/C (dose: 7.5 mg/kg/injection, schedule: Q01DX Z (ip), vehicle: carboxymethylcellulose (CMC)): 116 % of control
T/C (dose: 15.0 mg/kg/injection, schedule: Q01DX Z (ip), vehicle: carboxymethylcellulose (CMC)): 102 % of control

CCN(CC)C(=O)Nc1cccc(OC(=O)N(C)C)c1
T/C [1]: 87 % of control
T/C [2]: 89 % of control

CC1(C(=O)O)CCC(C(=O)O)C1(C)C (centres undefined)
T/C [3]: 105 % of control
T/C [4]: 100 % of control
T/C (dose: 400.0 mg/kg/injection, schedule: Q04DX002 (ip), vehicle: saline with Tween-80): 93 % of control

COc1cc(C(=O)O)cc(OC)c1OC
T/C (dose: 100.0 mg/kg/injection, schedule: Q04DX002 (ip), vehicle: other): 103 % of control
T/C (dose: 200.0 mg/kg/injection, schedule: Q04DX002 (ip), vehicle: other): 98 % of control
T/C (dose: 400.0 mg/kg/injection, schedule: Q04DX002 (ip), vehicle: other): 98 % of control

CN(C)CCOC(=O)/C=C/c1ccccc1
T/C [5]: 89 % of control
T/C [6]: 96 % of control
T/C [7]: 88 % of control

CC(=O)Nc1ccc(OC(=O)Nc2ccccc2F)cc1
T/C [8]: 98 % of control
T/C [9]: 101 % of control
T/C (dose: 400.0 mg/kg/injection, schedule: Q01DX009 (ip), vehicle: Klucel (hydroxypropylcellulose) (HPC)): 106 % of control

BrCCC[CH2][Sn]([c]1ccccc1)([c]1ccccc1)[c]1ccccc1
T/C [5]: 100 % of control
T/C [6]: 100 % of control
T/C [7]: 100 % of control

CC(=O)Nc1ccc(SCCCc2c(N)nc(N)nc2N)cc1
T/C [10]: 100 % of control
T/C [11]: 99 % of control
T/C (dose: 400.0 mg/kg/injection, schedule: Q04DX003 (ip), vehicle: Klucel (hydroxypropylcellulose) (HPC)): 97 % of control

COc1ccc(CC(=O)NCCN(CCN(CCO)C(=O)Cc2ccc(OC)cc2)C(=O)Cc2ccc(OC)cc2)cc1
T/C [1]: 95 % of control
T/C (dose: 100.0 mg/kg/injection, schedule: Q04DX003 (ip), vehicle: saline with Tween-80): 100 % of control
T/C [2]: 90 % of control
T/C (dose: 200.0 mg/kg/injection, schedule: Q04DX003 (ip), vehicle: saline with Tween-80): 102 % of control
T/C (dose: 400.0 mg/kg/injection, schedule: Q01DX009 (ip), vehicle: saline with Tween-80): 91 % of control
T/C (dose: 400.0 mg/kg/injection, schedule: Q04DX003 (ip), vehicle: saline with Tween-80): 94 % of control

Cc1cccc(C(=O)NCC(=O)O)c1
T/C [5]: 98 % of control
T/C [6]: 94 % of control
T/C [3]: 99 % of control
T/C [7]: 91 % of control
T/C [4]: 96 % of control

COc1ccc(C(=O)Nc2ccccc2)cc1N
T/C (dose: 50.0 mg/kg/injection, schedule: Q01DX009 (ip), vehicle: carboxymethylcellulose (CMC)): 96 % of control
T/C (dose: 100.0 mg/kg/injection, schedule: Q01DX009 (ip), vehicle: carboxymethylcellulose (CMC)): 103 % of control
T/C (dose: 200.0 mg/kg/injection, schedule: Q01DX009 (ip), vehicle: carboxymethylcellulose (CMC)): 94 % of control
T/C (dose: 400.0 mg/kg/injection, schedule: Q01DX001 (ip), vehicle: carboxymethylcellulose (CMC)): 120 % of control
T/C (dose: 400.0 mg/kg/injection, schedule: Q01DX009 (ip), vehicle: carboxymethylcellulose (CMC)): 100 % of control
T/C (dose: 600.0 mg/kg/injection, schedule: Q01DX001 (ip), vehicle: carboxymethylcellulose (CMC)): 114 % of control
T/C (dose: 800.0 mg/kg/injection, schedule: Q01DX001 (ip), vehicle: carboxymethylcellulose (CMC)): 118 % of control
T/C (dose: 1000.0 mg/kg/injection, schedule: Q01DX001 (ip), vehicle: carboxymethylcellulose (CMC)): 114 % of control

COC(=O)c1cc2nccc3c4ccccc4n(c1=O)c23
T/C (dose: 100.0 mg/kg/injection, schedule: Q04DX003 (ip), vehicle: alcohol): 103 % of control
T/C (dose: 200.0 mg/kg/injection, schedule: Q04DX003 (ip), vehicle: alcohol): 97 % of control
T/C (dose: 400.0 mg/kg/injection, schedule: Q04DX003 (ip), vehicle: alcohol): 98 % of control

CN(N=O)C(=O)Nc1c[nH]c(=O)[nH]c1=O
T/C (dose: 10.0 mg/kg/injection, schedule: Q01DX Z (ip), vehicle: carboxymethylcellulose (CMC)): 172 % of control
T/C (dose: 20.0 mg/kg/injection, schedule: Q01DX Z (ip), vehicle: carboxymethylcellulose (CMC)): 207 % of control
T/C (dose: 27.0 mg/kg/injection, schedule: Q01DX Z (ip), vehicle: saline): 151 % of control
T/C (dose: 40.0 mg/kg/injection, schedule: Q01DX Z (ip), vehicle: carboxymethylcellulose (CMC)): 239 % of control
T/C (dose: 40.5 mg/kg/injection, schedule: Q01DX Z (ip), vehicle: saline): 159 % of control
T/C (dose: 50.0 mg/kg/injection, schedule: Q01DX Z (ip), vehicle: carboxymethylcellulose (CMC)): 165 % of control and 206 % of control
T/C (dose: 60.0 mg/kg/injection, schedule: Q01DX Z (ip), vehicle: carboxymethylcellulose (CMC)): 183 % of control
T/C (dose: 60.7 mg/kg/injection, schedule: Q01DX Z (ip), vehicle: saline): 162 % of control
T/C (dose: 80.0 mg/kg/injection, schedule: Q01DX Z (ip), vehicle: carboxymethylcellulose (CMC)): 101 % of control
T/C (dose: 91.1 mg/kg/injection, schedule: Q01DX Z (ip), vehicle: saline): 98 % of control
T/C (dose: 240.0 mg/kg/injection, schedule: Q01DX001 (ip), vehicle: saline): 185 % of control
T/C (dose: 480.0 mg/kg/injection, schedule: Q01DX001 (ip), vehicle: saline): 188 % of control
T/C (dose: 960.0 mg/kg/injection, schedule: Q01DX001 (ip), vehicle: saline): 173 % of control

Nc1cc(Cl)cc2c1-c1c(Cl)cc(Cl)cc1C2=O
T/C [8]: 100 % of control
T/C [10]: 97 % of control
T/C [9]: 106 % of control
T/C [11]: 95 % of control

c1ccc(C2=C(c3ccccc3)CC2)cc1
T/C (dose: 50.0 mg/kg/injection, schedule: Q01DX001 (ip), vehicle: Klucel (hydroxypropylcellulose) (HPC)): 104 % of control
T/C (dose: 100.0 mg/kg/injection, schedule: Q01DX001 (ip), vehicle: Klucel (hydroxypropylcellulose) (HPC)): 98 % of control
T/C (dose: 200.0 mg/kg/injection, schedule: Q01DX001 (ip), vehicle: Klucel (hydroxypropylcellulose) (HPC)): 108 % of control

O=C(Nc1ccc(F)cc1)Nc1cccc(C(F)(F)F)c1
T/C (dose: 50.0 mg/kg/injection, schedule: Q01DX009 (ip), vehicle: Klucel (hydroxypropylcellulose) (HPC)): 103 % of control
T/C [8]: 107 % of control
T/C [9]: 92 % of control

O=C(On1c(-c2ccccc2)cc2ccccc21)c1ccc([N+](=O)[O-])cc1
T/C (dose: 100.0 mg/kg/injection, schedule: Q04DX002 (ip), vehicle: Klucel (hydroxypropylcellulose) (HPC)): 104 % of control
T/C (dose: 200.0 mg/kg/injection, schedule: Q04DX002 (ip), vehicle: Klucel (hydroxypropylcellulose) (HPC)): 111 % of control
T/C (dose: 400.0 mg/kg/injection, schedule: Q04DX002 (ip), vehicle: Klucel (hydroxypropylcellulose) (HPC)): 96 % of control

O=S1CCCCO1 (centres undefined)
T/C (dose: 37.5 mg/kg/injection, schedule: Q01DX009 (ip), vehicle: saline): 96 % of control
T/C (dose: 75.0 mg/kg/injection, schedule: Q01DX001 (ip), vehicle: saline): 101 % of control
T/C (dose: 75.0 mg/kg/injection, schedule: Q01DX009 (ip), vehicle: saline): 91 % of control
T/C (dose: 150.0 mg/kg/injection, schedule: Q01DX001 (ip), vehicle: saline): 101 % of control
T/C (dose: 150.0 mg/kg/injection, schedule: Q01DX009 (ip), vehicle: saline): 96 % of control
T/C (dose: 300.0 mg/kg/injection, schedule: Q01DX001 (ip), vehicle: saline): 104 % of control

CC(C)CN(C)N=Nc1ccc(C(=N)N)cc1
T/C (dose: 5.0 mg/kg/injection, schedule: Q01DX001 (ip), vehicle: carboxymethylcellulose (CMC)): 94 % of control
T/C (dose: 10.0 mg/kg/injection, schedule: Q01DX001 (ip), vehicle: carboxymethylcellulose (CMC)): 97 % of control
T/C (dose: 20.0 mg/kg/injection, schedule: Q01DX001 (ip), vehicle: carboxymethylcellulose (CMC)): 97 % of control
T/C (dose: 40.0 mg/kg/injection, schedule: Q01DX001 (ip), vehicle: carboxymethylcellulose (CMC)): 92 % of control
T/C (dose: 80.0 mg/kg/injection, schedule: Q01DX001 (ip), vehicle: carboxymethylcellulose (CMC)): 91 % of control
T/C (dose: 100.0 mg/kg/injection, schedule: Q01DX001 (ip), vehicle: carboxymethylcellulose (CMC)): 105 % of control
